What was measured:
Assay in all cases: Post-emergence test, weed control effect
Assay type in all cases: in vivo
Details in all cases: after 3 weeks
[1] = system: Amaranthus retroflexus
From the text: (§1) The activity level standard of harmful plant destruction (i.e. growth inhibition rate) is as follows: • Level 10: completely dead; • Level 9: above 90% growth inhibition rate; • Level 8: above 80% growth inhibition rate; • Level 7: above 70% growth inhibition rate; • Level 6: above 60% growth inhibition rate; • Level 5: above 50% growth inhibition rate; • Level 4: above 40% growth inhibition rate; • Level 3: above 30% growth inhibition rate; • Level 2: above 20% growth inhibition rate; • Level 1: below 20% growth inhibition rate; • Level 0: no effect.
(§2) The above described growth inhibition rates are fresh weight inhibition rates.
(§3) Experiment of post-emergence test: monocotyledonous and dicotyledonous weed seeds as well as main crop seeds (i.e., wheat, corn, rice, soybean, cotton, oilseed rape, millet and sorghum) were put into a plastic pot loaded with soil, then covered with 0.5-2 cm of soil, and the seeds were allowed to grow in good greenhouse environment. The test plants were treated at 2-3 leaf stage 2-3 weeks after sowing. The test compounds of the invention were dissolved in acetone respectively, then added with Tween-80 and diluted by a certain amount of water to give solutions with certain concentrations, and added with 80% vegetable oil methyl ester synergist at 1500 g/ha. The solution was sprayed to the plants with a sprayer. The plants were cultured for 3 weeks in the greenhouse.

[2] = system: Chenopodiaceae
From the text: as §1, §2, §3

[3] = system: Rorippa indica
From the text: as §1, §2, §3

[4] = system: Veronica polita
From the text: as §1, §2, §3

O=S(=O)(Oc1cc(C(F)(F)F)nnc1-c1ccc(F)c(F)c1)c1cc(F)c(Br)cc1F [Compound 1-138]
10: weed control effect, Amaranthus retroflexus (activity level) ([1]; Dose 3000 g/ha) | weed control effect, Chenopodiaceae (activity level) ([2]; Dose 3000 g/ha) | weed control effect, Rorippa indica (activity level) ([3]; Dose 3000 g/ha) | weed control effect, Veronica polita (activity level) ([4]; Dose 3000 g/ha)

O=S(=O)(NCCCCl)Oc1cc(C(F)(F)F)nnc1-c1cccc(F)c1 [Compound 1-124]
10: weed control effect, Amaranthus retroflexus (activity level) ([1]; Dose 3000 g/ha) | weed control effect, Chenopodiaceae (activity level) ([2]; Dose 3000 g/ha) | weed control effect, Rorippa indica (activity level) ([3]; Dose 3000 g/ha) | weed control effect, Veronica polita (activity level) ([4]; Dose 3000 g/ha)

CCCCC(CCCC)=NOc1cc(C(F)(F)F)nnc1-c1cccc([N+](=O)[O-])c1 [Compound 1-178]
10: weed control effect, Amaranthus retroflexus (activity level) ([1]; Dose 3000 g/ha) | weed control effect, Chenopodiaceae (activity level) ([2]; Dose 3000 g/ha) | weed control effect, Rorippa indica (activity level) ([3]; Dose 3000 g/ha) | weed control effect, Veronica polita (activity level) ([4]; Dose 3000 g/ha)

O=C(/C=C\c1ccccc1)Oc1cc(C(F)(F)F)nnc1-c1ccc(Cl)cc1 [Compound 1-96]
10: weed control effect, Amaranthus retroflexus (activity level) ([1]; Dose 3000 g/ha) | weed control effect, Chenopodiaceae (activity level) ([2]; Dose 3000 g/ha) | weed control effect, Rorippa indica (activity level) ([3]; Dose 3000 g/ha) | weed control effect, Veronica polita (activity level) ([4]; Dose 3000 g/ha)

Cn1nc(Cl)cc1-c1nnc(C(F)(F)F)cc1O [Compound 776]
10: weed control effect (activity level), Amaranthus retroflexus ([1]; Dose 3000 g/ha) | weed control effect (activity level), Chenopodiaceae ([2]; Dose 3000 g/ha) | weed control effect (activity level), Rorippa indica ([3]; Dose 3000 g/ha) | weed control effect (activity level), Veronica polita ([4]; Dose 3000 g/ha)

CCC/C=N\Oc1cc(C(F)(F)F)nnc1-c1ccc(F)cc1 [Compound 1-172]
10: weed control effect, Amaranthus retroflexus (activity level) ([1]; Dose 3000 g/ha) | weed control effect, Chenopodiaceae (activity level) ([2]; Dose 3000 g/ha) | weed control effect, Rorippa indica (activity level) ([3]; Dose 3000 g/ha) | weed control effect, Veronica polita (activity level) ([4]; Dose 3000 g/ha)

Cc1cc(C)c(-c2nnc(C(F)(F)F)cc2O)o1 [Compound 439]
10: weed control effect (activity level), Amaranthus retroflexus ([1]; Dose 3000 g/ha) | weed control effect (activity level), Chenopodiaceae ([2]; Dose 3000 g/ha) | weed control effect (activity level), Rorippa indica ([3]; Dose 3000 g/ha) | weed control effect (activity level), Veronica polita ([4]; Dose 3000 g/ha)

CC(=O)Oc1cc(C(F)(F)F)nnc1-c1ccc(F)cc1 [Compound 1-2]
10: weed control effect, Amaranthus retroflexus (activity level) ([1]; Dose 3000 g/ha) | weed control effect, Chenopodiaceae (activity level) ([2]; Dose 3000 g/ha) | weed control effect, Rorippa indica (activity level) ([3]; Dose 3000 g/ha) | weed control effect, Veronica polita (activity level) ([4]; Dose 3000 g/ha)

Cc1cc(F)ccc1-c1nnc(C(F)(F)F)cc1O [Compound 58]
10: weed control effect (activity level), Amaranthus retroflexus ([1]; dose 1000 g/ha) | weed control effect (activity level), Chenopodiaceae ([2]; dose 1000 g/ha) | weed control effect (activity level), Rorippa indica ([3]; dose 1000 g/ha) | weed control effect (activity level), Veronica polita ([4]; dose 1000 g/ha)

CCO/C=C/C(=O)Oc1cc(C(F)(F)F)nnc1-c1cccc(F)c1 [Compound 1-75]
10: weed control effect, Amaranthus retroflexus (activity level) ([1]; Dose 3000 g/ha) | weed control effect, Chenopodiaceae (activity level) ([2]; Dose 3000 g/ha) | weed control effect, Rorippa indica (activity level) ([3]; Dose 3000 g/ha) | weed control effect, Veronica polita (activity level) ([4]; Dose 3000 g/ha)

CCCCCCOC(=O)Oc1cc(C(F)(F)F)nnc1-c1ccc(Cl)c([N+](=O)[O-])c1 [Compound 1-35]
10: weed control effect, Amaranthus retroflexus (activity level) ([1]; Dose 3000 g/ha) | weed control effect, Chenopodiaceae (activity level) ([2]; Dose 3000 g/ha) | weed control effect, Rorippa indica (activity level) ([3]; Dose 3000 g/ha) | weed control effect, Veronica polita (activity level) ([4]; Dose 3000 g/ha)

Oc1cc(C(F)(F)F)nnc1-c1cnccc1F [Compound 964]
10: weed control effect (activity level), Amaranthus retroflexus ([1]; Dose 3000 g/ha) | weed control effect (activity level), Chenopodiaceae ([2]; Dose 3000 g/ha) | weed control effect (activity level), Rorippa indica ([3]; Dose 3000 g/ha) | weed control effect (activity level), Veronica polita ([4]; Dose 3000 g/ha)

CCS(=O)(=O)Oc1cc(C(F)(F)F)nnc1-c1ccc(F)cc1 [Compound 1-121]
10: weed control effect, Amaranthus retroflexus (activity level) ([1]; Dose 3000 g/ha) | weed control effect, Chenopodiaceae (activity level) ([2]; Dose 3000 g/ha) | weed control effect, Rorippa indica (activity level) ([3]; Dose 3000 g/ha) | weed control effect, Veronica polita (activity level) ([4]; Dose 3000 g/ha)

CCCCCCOC(=S)Oc1cc(C(F)(F)F)nnc1-c1ccc(Cl)c(Cl)c1Cl [Compound 1-160]
10: weed control effect, Amaranthus retroflexus (activity level) ([1]; Dose 3000 g/ha) | weed control effect, Chenopodiaceae (activity level) ([2]; Dose 3000 g/ha) | weed control effect, Rorippa indica (activity level) ([3]; Dose 3000 g/ha) | weed control effect, Veronica polita (activity level) ([4]; Dose 3000 g/ha)

O=C(Oc1cc(C(F)(F)F)nnc1-c1ccc(F)c(F)c1)c1cnccn1 [Compound 1-112]
10: weed control effect, Amaranthus retroflexus (activity level) ([1]; Dose 3000 g/ha) | weed control effect, Chenopodiaceae (activity level) ([2]; Dose 3000 g/ha) | weed control effect, Rorippa indica (activity level) ([3]; Dose 3000 g/ha) | weed control effect, Veronica polita (activity level) ([4]; Dose 3000 g/ha)

N#Cc1ccc(-c2nnc(C(F)(F)F)cc2O)cn1 [Compound 212]
10: weed control effect (activity level), Amaranthus retroflexus ([1]; dose 2000 g/ha) | weed control effect (activity level), Chenopodiaceae ([2]; dose 2000 g/ha) | weed control effect (activity level), Rorippa indica ([3]; dose 2000 g/ha) | weed control effect (activity level), Veronica polita ([4]; dose 2000 g/ha)

Cc1ccc(S(=O)(=O)Oc2cc(C(F)(F)F)nnc2-c2ccc(F)cc2)cc1 [Compound 1-132]
10: weed control effect, Amaranthus retroflexus (activity level) ([1]; Dose 3000 g/ha) | weed control effect, Chenopodiaceae (activity level) ([2]; Dose 3000 g/ha) | weed control effect, Rorippa indica (activity level) ([3]; Dose 3000 g/ha) | weed control effect, Veronica polita (activity level) ([4]; Dose 3000 g/ha)

Oc1cc(C(F)(F)F)nnc1-c1cncc(Br)c1 [Compound 967]
10: weed control effect (activity level), Amaranthus retroflexus ([1]; Dose 3000 g/ha) | weed control effect (activity level), Chenopodiaceae ([2]; Dose 3000 g/ha) | weed control effect (activity level), Rorippa indica ([3]; Dose 3000 g/ha) | weed control effect (activity level), Veronica polita ([4]; Dose 3000 g/ha)

Cn1nc(F)cc1-c1nnc(C(F)(F)F)cc1O [Compound 775]
10: weed control effect (activity level), Amaranthus retroflexus ([1]; Dose 3000 g/ha) | weed control effect (activity level), Chenopodiaceae ([2]; Dose 3000 g/ha) | weed control effect (activity level), Rorippa indica ([3]; Dose 3000 g/ha) | weed control effect (activity level), Veronica polita ([4]; Dose 3000 g/ha)

O=C(CSc1ccccc1)Oc1cc(C(F)(F)F)nnc1-c1ccc(F)c(F)c1 [Compound 1-95]
10: weed control effect, Amaranthus retroflexus (activity level) ([1]; Dose 3000 g/ha) | weed control effect, Chenopodiaceae (activity level) ([2]; Dose 3000 g/ha) | weed control effect, Rorippa indica (activity level) ([3]; Dose 3000 g/ha) | weed control effect, Veronica polita (activity level) ([4]; Dose 3000 g/ha)

CC(C)n1nccc1-c1nnc(C(F)(F)F)cc1O [Compound 828]
10: weed control effect (activity level), Amaranthus retroflexus ([1]; Dose 3000 g/ha) | weed control effect (activity level), Chenopodiaceae ([2]; Dose 3000 g/ha) | weed control effect (activity level), Rorippa indica ([3]; Dose 3000 g/ha) | weed control effect (activity level), Veronica polita ([4]; Dose 3000 g/ha)

CCCn1cc(-c2nnc(C(F)(F)F)cc2O)cn1 [Compound 546]
10: weed control effect (activity level), Amaranthus retroflexus ([1]; Dose 3000 g/ha) | weed control effect (activity level), Chenopodiaceae ([2]; Dose 3000 g/ha) | weed control effect (activity level), Rorippa indica ([3]; Dose 3000 g/ha) | weed control effect (activity level), Veronica polita ([4]; Dose 3000 g/ha)

Reference: patent US12568972B2, “Pyridazinol compounds and derivatives, preparation methods, herbicidal compositions and applications thereof” (Qingdao Kingagroot Chemical Compound Co., Ltd., priority 2018, dated 2026)
